Legend:
Format in all cases: in vivo
Kochia (Kochia scoparia) [1] = assay: Test A preemergence; conditions: for Kochia plant response rating (0 to 100 scale, 0 is no effect, 100 is complete control): visual injury approx. 10 d
In short: (§1)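 Ratings of 0 (no effect) to 100 (complete control) come from visual comparison with untreated controls roughly 10 d after treatment. Test chemicals, formulated in a non-phytotoxic solvent mixture with surfactant, were applied either as a preemergence directed soil spray on seeded soil or postemergence to one- to two-leaf plants 2 to 10 cm tall.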

[2] = test system: barnyardgrass (Echinochloa crus-galli); assay: Test A preemergence; conditions: for Barnyardgrass plant response rating (0 to 100 scale, 0 is no effect, 100 is complete control): visual injury approx. 10 d
In short: as §1

[3] = test system: giant foxtail (Setaria faberii); assay: Test A preemergence; conditions: for Foxtail, Giant plant response rating (0 to 100 scale, 0 is no effect, 100 is complete control): visual injury approx. 10 d
In short: as §1

[4] = test system: pigweed (Amaranthus retroflexus); assay: Test A preemergence; conditions: for Pigweed plant response rating (0 to 100 scale, 0 is no effect, 100 is complete control): visual injury approx. 10 d
[5] = test system: ragweed (common ragweed, Ambrosia elatior); assay: Test A preemergence; conditions: for Ragweed plant response rating (0 to 100 scale, 0 is no effect, 100 is complete control): visual injury approx. 10 d
In short: as §1

[6] = test system: ryegrass, Italian (Italian ryegrass, Lolium multiflorum); assay: Test A preemergence; conditions: for Ryegrass, Italian plant response rating (0 to 100 scale, 0 is no effect, 100 is complete control): visual injury approx. 10 d
In short: as §1

[7] = test system: Galium (catchweed bedstraw, Galium aparine); assay: Test A postemergence; conditions: for Galium plant response rating: visual injury rating on 0 to 100 scale (0 no effect, 100 complete control)
In short: as §1

Kochia (Kochia scoparia) [8] = assay: Test A postemergence; conditions: for Kochia plant response rating: visual injury rating on 0 to 100 scale (0 no effect, 100 complete control)
In short: as §1

[9] = test system: barnyardgrass (Echinochloa crus-galli); assay: Test A postemergence; conditions: for Barnyardgrass plant response rating: visual injury rating on 0 to 100 scale (0 no effect, 100 complete control)
In short: as §1

[10] = test system: blackgrass (Alopecurus myosuroides); assay: Test A postemergence; conditions: for Blackgrass plant response rating: visual injury rating on 0 to 100 scale (0 no effect, 100 complete control)
In short: as §1

corn (Zea mays) = assay: Test A postemergence; conditions: for Corn plant response rating: visual injury rating on 0 to 100 scale (0 no effect, 100 complete control)
In short: as §1

[11] = test system: giant foxtail (Setaria faberii); assay: Test A postemergence; conditions: for Foxtail, Giant plant response rating: visual injury rating on 0 to 100 scale (0 no effect, 100 complete control)
In short: as §1

[12] = test system: pigweed (Amaranthus retroflexus); assay: Test A postemergence; conditions: for Pigweed plant response rating: visual injury rating on 0 to 100 scale (0 no effect, 100 complete control)
In short: as §1

[13] = test system: ragweed (common ragweed, Ambrosia elatior); assay: Test A postemergence; conditions: for Ragweed plant response rating: visual injury rating on 0 to 100 scale (0 no effect, 100 complete control)
In short: as §1

[14] = test system: ryegrass, Italian (Italian ryegrass, Lolium multiflorum); assay: Test A postemergence; conditions: for Ryegrass, Italian plant response rating: visual injury rating on 0 to 100 scale (0 no effect, 100 complete control)
In short: as §1

[15] = test system: wheat (Triticum aestivum); assay: Test A postemergence; conditions: for Wheat plant response rating: visual injury rating on 0 to 100 scale (0 no effect, 100 complete control)
In short: as §1

[16] = test system: barnyardgrass (Echinochloa crus-galli); assay: Test B flooded paddy test; conditions: Flood, 250 g ai/ha; 0 to 100 scale where 0 is no effect and 100 is complete control; 13 to 15 d
In short: (§2)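 Compound goes directly into floodwater once pots are flooded 3 cm above soil, targeting plants at two leaves; the water depth is then held for the test duration. Plants sit 13–15 d in a greenhouse and are rated visually, 100 denoting complete control.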

[17] = test system: ducksalad (Heteranthera limosa); assay: Test B flooded paddy test; conditions: Flood, 250 g ai/ha; 0 to 100 scale where 0 is no effect and 100 is complete control; 13 to 15 d
In short: as §2

rice (Oryra sativa) = assay: Test B flooded paddy test; conditions: Flood, 250 g ai/ha; 0 to 100 scale where 0 is no effect and 100 is complete control; 13 to 15 d
In short: as §2

[18] = test system: sedge, umbrella (small-flower umbrella sedge, Cyperus difformis); assay: Test B flooded paddy test; conditions: Flood, 250 g ai/ha; 0 to 100 scale where 0 is no effect and 100 is complete control; 13 to 15 d
In short: as §2

[19] = 125 g ai/ha, preemergence, 0 to 100 scale (0 no effect, 100 complete control)
[20] = 125 g ai/ha, postemergence, approx. 10 d
[21] = 500 g ai/ha, postemergence, 0 to 100 scale, 0 no effect, 100 complete control
[22] = 125 g ai/ha, Preemergence, visual injury after approximately 10 d, 0 to 100 scale where 0 is no effect and 100 is complete control
[23] = 500 g ai/ha, preemergence, 0 to 100 scale, 0 = no effect, 100 = complete control
[24] = 125 g ai/ha, postemergence, visual rating after approx. 10 d, 0 to 100 scale (0 no effect, 100 complete control)
[25] = 500 g ai/ha, postemergence, visual injury, 0 to 100 scale (0 no effect, 100 complete control), approx. 10 d
[26] = Postemergence, 500 g ai/ha, 0 to 100 scale where 0 is no effect and 100 is complete control

## CN1CC(c2ccc3c(c2)OC(F)(F)O3)C(C(=O)Nc2cccc(F)c2F)C1=O (stereo not drawn) [Compound 442]
Kochia (Kochia scoparia) [1]; [19]
  Plant response rating, Kochia: 80
Kochia (Kochia scoparia) [1]; Preemergence, 500 g ai/ha
  Kochia plant response rating (0 to 100 scale, 0 is no effect, 100 is complete control): 90
[2]; [19]
  Plant response rating, Barnyardgrass: 90
[2]; Preemergence, 500 g ai/ha
  Barnyardgrass plant response rating (0 to 100 scale, 0 is no effect, 100 is complete control): 90
[3]; [19]
  Plant response rating, Foxtail, Giant: 90
[3]; Preemergence, 500 g ai/ha
  Foxtail, Giant plant response rating (0 to 100 scale, 0 is no effect, 100 is complete control): 90
[4]; [19]
  Plant response rating, Pigweed: 70
[4]; Preemergence, 500 g ai/ha
  Pigweed plant response rating (0 to 100 scale, 0 is no effect, 100 is complete control): 80
[5]; [19]
  Plant response rating, Ragweed: 20
[5]; Preemergence, 500 g ai/ha
  Ragweed plant response rating (0 to 100 scale, 0 is no effect, 100 is complete control): 60
[6]; [19]
  Plant response rating, Ryegrass, Italian: 60
[6]; Preemergence, 500 g ai/ha
  Ryegrass, Italian plant response rating (0 to 100 scale, 0 is no effect, 100 is complete control): 80
[7]; [20]
  Galium plant response rating: 60
[7]; [21]
  Plant response rating, Galium: 60
Kochia (Kochia scoparia) [8]; [20]
  Kochia plant response rating: 20
Kochia (Kochia scoparia) [8]; [21]
  Plant response rating, Kochia: 60
[9]; [20]
  Barnyardgrass plant response rating: 80
[9]; [21]
  Plant response rating, Barnyardgrass: 90
[10]; [20]
  Blackgrass plant response rating: 60
[10]; [21]
  Plant response rating, Blackgrass: 70
Corn (Zea mays); [20]
  Corn plant response rating: 50
Corn (Zea mays); [21]
  Plant response rating, Corn: 70
[11]; [20]
  Foxtail, Giant plant response rating: 80
[11]; [21]
  Plant response rating, Foxtail, Giant: 80
[12]; [20]
  Pigweed plant response rating: 60
[12]; [21]
  Plant response rating, Pigweed: 70
[13]; [20]
  Ragweed plant response rating: 0
[13]; [21]
  Plant response rating, Ragweed: 40
[14]; [20]
  Ryegrass, Italian plant response rating: 60
[14]; [21]
  Plant response rating, Ryegrass, Italian: 80
[15]; [20]
  Wheat plant response rating: 40
[15]; [21]
  Plant response rating, Wheat: 70
[16]
  Plant response rating, Barnyardgrass: 75
[17]
  Plant response rating, Ducksalad: 100
Rice (Oryra sativa)
  Plant response rating, Rice: 0
[18]
  Plant response rating, Sedge, Umbrella: 0

## Cc1ccc(C2CNC(=O)C2C(=O)Nc2ccc(F)cc2F)cc1C(F)(F)F (racemic) [Compound 680]
Kochia (Kochia scoparia) [1]; [22]
  Plant response rating, Kochia: 0
Kochia (Kochia scoparia) [1]; [23]
  Plant response rating, Kochia: 20
[2]; [22]
  Plant response rating, Barnyardgrass: 30
[2]; [23]
  Plant response rating, Barnyardgrass: 90
[3]; [22]
  Plant response rating, Foxtail, Giant: 60
[3]; [23]
  Plant response rating, Foxtail, Giant: 90
[4]; [22]
  Plant response rating, Pigweed: 0
[4]; [23]
  Plant response rating, Pigweed: 0
[5]; [22]
  Plant response rating, Ragweed: 0
[5]; [23]
  Plant response rating, Ragweed: 0
[6]; [22]
  Plant response rating, Ryegrass, Italian: 0
[6]; [23]
  Plant response rating, Ryegrass, Italian: 20
[7]; [24]
  Plant response rating, Galium: 0
[7]; [25]
  Plant response rating, Galium: 20
Kochia (Kochia scoparia) [8]; [24]
  Plant response rating, Kochia: 0
Kochia (Kochia scoparia) [8]; [25]
  Plant response rating, Kochia: 0
[9]; [24]
  Plant response rating, Barnyardgrass: 30
[9]; [25]
  Plant response rating, Barnyardgrass: 60
[10]; [24]
  Plant response rating, Blackgrass: 20
[10]; [25]
  Plant response rating, Blackgrass: 20
Corn (Zea mays); [24]
  Plant response rating, Corn: 20
Corn (Zea mays); [25]
  Plant response rating, Corn: 20
[11]; [24]
  Plant response rating, Foxtail, Giant: 0
[11]; [25]
  Plant response rating, Foxtail, Giant: 30
[12]; [24]
  Plant response rating, Pigweed: 0
[12]; [25]
  Plant response rating, Pigweed: 0
[13]; [24]
  Plant response rating, Ragweed: 0
[13]; [25]
  Plant response rating, Ragweed: 0
[14]; [24]
  Plant response rating, Ryegrass, Italian: 0
[14]; [25]
  Plant response rating, Ryegrass, Italian: 0
[15]; [24]
  Plant response rating, Wheat: 0
[15]; [25]
  Plant response rating, Wheat: 0
[16]
  Plant response rating, Barnyardgrass: 20
[17]
  Plant response rating, Ducksalad: 30
Rice (Oryra sativa)
  Plant response rating, Rice: 15
[18]
  Plant response rating, Sedge, Umbrella: 0

## O=C1NCC(c2cccc(F)c2F)C1C(=O)Nc1ccc(F)cc1F (stereo not drawn) [Compound 495]
Kochia (Kochia scoparia) [1]; [22]
  Plant response rating, Kochia: 20
Kochia (Kochia scoparia) [1]; Preemergence, 500 g ai/ha
  Kochia plant response rating (0 to 100 scale, 0 is no effect, 100 is complete control): 30
[2]; [22]
  Plant response rating, Barnyardgrass: 30
[2]; Preemergence, 500 g ai/ha
  Barnyardgrass plant response rating (0 to 100 scale, 0 is no effect, 100 is complete control): 90
[3]; [22]
  Plant response rating, Foxtail, Giant: 90
[3]; Preemergence, 500 g ai/ha
  Foxtail, Giant plant response rating (0 to 100 scale, 0 is no effect, 100 is complete control): 90
[4]; [22]
  Plant response rating, Pigweed: 0
[4]; Preemergence, 500 g ai/ha
  Pigweed plant response rating (0 to 100 scale, 0 is no effect, 100 is complete control): 20
[5]; [22]
  Plant response rating, Ragweed: 0
[5]; Preemergence, 500 g ai/ha
  Ragweed plant response rating (0 to 100 scale, 0 is no effect, 100 is complete control): 0
[6]; [22]
  Plant response rating, Ryegrass, Italian: 0
[6]; Preemergence, 500 g ai/ha
  Ryegrass, Italian plant response rating (0 to 100 scale, 0 is no effect, 100 is complete control): 20
[7]; [20]
  Galium plant response rating: 0
[7]; [26]
  Plant response rating, Galium: 0
Kochia (Kochia scoparia) [8]; [20]
  Kochia plant response rating: 30
Kochia (Kochia scoparia) [8]; [26]
  Plant response rating, Kochia: 30
[9]; [20]
  Barnyardgrass plant response rating: 20
[9]; [26]
  Plant response rating, Barnyardgrass: 80
[10]; [20]
  Blackgrass plant response rating: 0
[10]; [26]
  Plant response rating, Blackgrass: 20
Corn (Zea mays); [20]
  Corn plant response rating: 0
Corn (Zea mays); [26]
  Plant response rating, Corn: 30
[11]; [20]
  Foxtail, Giant plant response rating: 20
[11]; [26]
  Plant response rating, Foxtail, Giant: 70
[12]; [20]
  Pigweed plant response rating: 0
[12]; [26]
  Plant response rating, Pigweed: 0
[13]; [20]
  Ragweed plant response rating: 0
[13]; [26]
  Plant response rating, Ragweed: 0
[14]; [20]
  Ryegrass, Italian plant response rating: 0
[14]; [26]
  Plant response rating, Ryegrass, Italian: 20
[15]; [20]
  Wheat plant response rating: 0
[15]; [26]
  Plant response rating, Wheat: 20
[16]
  Plant response rating, Barnyardgrass: 35
[17]
  Plant response rating, Ducksalad: 75
Rice (Oryra sativa)
  Plant response rating, Rice: 0
[18]
  Plant response rating, Sedge, Umbrella: 0

Reference: patent US12077503B2, “Substituted cyclic amides and their use as herbicides” (FMC CORPORATION, priority 2015, dated 2024)
